From PMC4595849, “Rational Design of Benzylidenehydrazinyl-Substituted Thiazole Derivatives as Potent Inhibitors of Human Dihydroorotate Dehydrogenase with in Vivo Anti-arthritic Activity” (Scientific Reports, 2015)
Several values for one entry are separate records, joined by “and”; a condition that tells them apart may be missing. Identical values can stand only once.

Legend:
[1] = target: T1, hDHODH (Met30-Arg396) (Homo sapiens, UniProt Q02127); test: hDHODH enzyme inhibition, DCIP assay; format: biochemical; conditions: for LLE: LLE = pIC50 − clogP; for IC50: hDHODH, mean ± SD of three independent experiments, IC50 measured if inhibition rate at 10 μM was larger than 50%; for fold decrease in potency compared with 19: hDHODH IC50 relative to 19
T1 construct: hDHODH (Met30-Arg396) was expressed and purified in the same manner as described in our recently published work; made in house
From the text: The plasmid coding for human DHODH was kindly provided by Prof. Jon Clardy (Harvard Medical School)[7]. hDHODH (Met30-Arg396) was expressed and purified in the same manner as described in our recently published work[38]. We determined the effect of benzylidenehydrazinyl-substituted thiazole derivatives to inhibit hDHODH by using a DCIP assay method.

[2] = parameters: method as in PMID 16645972; conditions: in patients; cited from earlier work
[3] = system: Wistar rats with collagen-induced arthritis (CIA); test: collagen-induced arthritis (CIA) rat efficacy study; format: in vivo; conditions: i.p. daily for 28 days, versus model group
Protocol: Compound 19 and methotrexate were injected intraperitoneally once per day for 28 days into the Wistar rats with collagen-induced arthritis (CIA). The swelling scores of the arthritis and morphological observations of the rats’ joint tissues were employed to examine the anti-arthritic effect of compound 19 (Fig. 5). With the onset of arthritis, the swelling scores were an indication of the disease states. The maximum score was 8, which is the sum of the scores from both hind paws of each rat and indicates a severe arthritis state. During the experiment, the control rats had normal eating patterns, shiny hair and continuously increasing body weight.
Adult male Wistar rats (120–140 g) were purchased from Shanghai SLRC Laboratory animal company and housed in standard pathogen-free cages. The environment was climate-controlled (20–25 °C, 50–60% relative humidity) with a 12-hour light and 12-hour dark cycle as described previously. Sterilized food and water were provided naturally. All procedures involving animals conform to the Chinese government guidelines for animal experiments, and were conducted with approval of the Institutional Animal Care and Use Committee of East China University of Science & Technology. Bovine type II collagen (CII, Chondrex, USA) was emulsified in the same manner as that conducted previously to get the CIA model. Specifically, 49 rats were randomly assigned into five groups: normal control (solvent, i.p., n = 6), CIA model (solvent, i.p., n = 11), Methotrexate-treated (0.3 mg/kg, i.p., n = 10), compound 19-treated (5 mg/kg, i.p., n = 11) and compound 19-treated (30 mg/kg, i.p., n = 11) groups. Methotrexate, reported to has a therapeutic effect on rheumatoid arthritis, was used as the positive control in this study. The main workflows of this experiment were consistent with that reported recently. During the 28 days of the experiment, compound 19 (5 mg/kg and 30 mg/kg) and Methotrexate (0.3 mg/kg) were injected intraperitoneally once every day. At the same time, the normal control group and model group were administered the same amount of solution. The solvent of 19 was made up of 5% DMSO, 45% saline and 50% PEG400.
In this study, the clinical-mimic arthritis was observed and the severity was assessed by the same criteria as that applied in reference 65: 0, normal, without any swelling; 1, mild swelling; 2, swelling; 3, significant swelling; 4, severe swelling. The maximum score was 8, which was the sum of the scores from both hind paws of each rat. When arthritic signs appeared, the incidence and severity of the arthritis in rats with different treatments were evaluated via arthritis scores recorded every 2 days under blinded conditions. Measurement of body weight was taken every 3 days. All Wistar rats were killed after 28 day’s trails. Pathological detections against the whole knee joints of the rats were conducted using the same method as described previously. Mean ± standard deviation […] was applied to present the data in this study. SPSS was used to evaluate the statistical significance of differences among the groups. P ≤ 0.05 was the threshold to be statistically significant.

T1 sequence (Q02127 29-395): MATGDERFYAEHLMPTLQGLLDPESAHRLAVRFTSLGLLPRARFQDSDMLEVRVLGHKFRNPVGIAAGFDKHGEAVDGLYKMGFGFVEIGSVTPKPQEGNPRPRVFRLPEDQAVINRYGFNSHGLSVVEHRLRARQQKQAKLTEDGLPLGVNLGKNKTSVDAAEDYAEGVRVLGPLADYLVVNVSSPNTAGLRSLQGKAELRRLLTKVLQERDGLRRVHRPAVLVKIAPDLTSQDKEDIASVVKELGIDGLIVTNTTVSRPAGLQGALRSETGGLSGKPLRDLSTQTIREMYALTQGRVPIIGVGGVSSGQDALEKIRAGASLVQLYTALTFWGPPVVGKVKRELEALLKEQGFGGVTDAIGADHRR

With `O=C(O)c1ccc(/C=N/Nc2nc(-c3ccccc3Cl)cs2)cc1` [Compound 21, (E)-4-((2-(4-(2-chlorophenyl)thiazol-2-yl)hydrazono)methyl)benzoic acid] the “inhibition of hDHODH (in words)” value [1] was “loss of activity”, the LLE [1] was under 0.28 and the IC50 [1] was over 10000 nM.

With `COC(=O)c1ccccc1/C=N/Nc1nc(-c2ccccc2Cl)cs1` [Compound 22, (E)-methyl 2-((2-(4-(2-chlorophenyl)thiazol-2-yl)hydrazono)methyl)benzoate] the LLE [1] was 1.02, the “fold decrease in potency compared with 19” value (shortened to “fold decrease in potency”) [1] was 101 fold and the IC50 [1] was 3270 ± 67.8 nM.

With `CCOC(=O)c1ccccc1/C=N/Nc1nc(-c2ccccc2Cl)cs1` [Compound 23, (E)-ethyl 2-((2-(4-(2-chlorophenyl)thiazol-2-yl)hydrazono)methyl)benzoate] the LLE [1] was 0.75, the “fold decrease in potency” value [1] was 58 fold and the IC50 [1] was 1870 ± 30 nM.

For `O=C(O)c1c(F)cccc1/C=N/Nc1nc(-c2ccccc2Cl)cs1` [Compound 24, (E)-2-((2-(4-(2-chlorophenyl)thiazol-2-yl)hydrazono)methyl)-6-fluorobenzoic acid], the LLE [1] was 2.66, the “fold decrease in potency” value [1] was 7 fold and the IC50 [1] was 234 ± 6.8 nM.

In the case of `Nc1cccc(C(=O)O)c1/C=N/Nc1nc(-c2ccccc2Cl)cs1` [Compound 25, (E)-3-amino-2-((2-(4-(2-chlorophenyl)thiazol-2-yl)hydrazono)methyl)benzoic acid], the “inhibition of hDHODH (in words)” value [1] is reported as “sharp decrease in inhibitory activity”, the LLE [1] is reported as under 1.22 and the IC50 [1] is reported as over 10000 nM.

In the case of `O=C(O)c1ccccc1/C=N/Nc1nc(-c2ccccc2)cs1` [Compound 26, (E)-2-((2-(4-phenylthiazol-2-yl)hydrazono)methyl)benzoic acid], the “inhibition of hDHODH (in words)” value [1] is reported as “slight decrease in activity”, the LLE [1] is reported as 3.12 and the IC50 [1] is reported as 183 ± 3.1 nM.

Compound `COc1cccc(-c2csc(N/N=C/c3ccccc3C(=O)O)n2)c1` [Compound 27, (E)-2-((2-(4-(3-methoxyphenyl)thiazol-2-yl)hydrazono)methyl)benzoic acid] has an LLE [1] of 3.52 and an IC50 [1] of 175 ± 1.8 nM.

For `NC(=O)c1cccc(-c2csc(N/N=C/c3ccccc3C(=O)O)n2)c1` [Compound 28, (E)-2-((2-(4-(3-carbamoylphenyl)thiazol-2-yl)hydrazono)methyl)benzoic acid], the “inhibition of hDHODH (in words)” value [1] was “sharp decrease in potency”, the LLE [1] was 4.38 and the IC50 [1] was 1175 ± 8.5 nM.

Work on `Cc1ccc(-c2csc(N/N=C/c3ccccc3C(=O)O)n2)cc1` [Compound 29, (E)-2-((2-(4-(p-tolyl)thiazol-2-yl)hydrazono)methyl)benzoic acid] yielded an LLE [1] of 2.64 and an IC50 [1] of 155 ± 6.8 nM.

For `O=C(O)c1ccccc1/C=N/Nc1nc(-c2cc(Cl)ccc2Cl)cs1` [Compound 30, (E)-2-((2-(4-(2,5-dichlorophenyl)thiazol-2-yl)hydrazono)methyl)benzoic acid], the “inhibition of hDHODH (in words)” value [1] was “IC50 values in the double-digit nanomolar range”, the LLE [1] was 2.88 and the IC50 [1] was 43 nM and 43.1 nM.

For `O=C(O)c1ccccc1/C=N/Nc1nc(-c2ccc3ccccc3c2)cs1` [Compound 31, (E)-2-((2-(4-(naphthalen-2-yl)thiazol-2-yl)hydrazono)methyl)benzoic acid], the “inhibition of hDHODH (in words)” value [1] was “moderate inhibitory activity”, the LLE [1] was 1.43 and the IC50 [1] was 573 ± 21.6 nM.

With `O=C(O)c1ccccc1/C=N/Nc1nc(-c2ccc(-c3ccccc3)cc2)cs1` [Compound 32, (E)-2-((2-(4-([1,1′-biphenyl]-4-yl)thiazol-2-yl)hydrazono)methyl)benzoic acid] the “inhibition of hDHODH (in words)” value [1] was “loss of activity”, the LLE [1] was under −0.04 and the IC50 [1] was over 10000 nM.

In the case of `Cc1oncc1C(=O)Nc1ccc(C(F)(F)F)cc1` [Leflunomide, leflunomide], the half-life [2] is given as “approximately two”.

For `CN(Cc1cnc2nc(N)nc(N)c2n1)c1ccc(C(=O)N[C@@H](CCC(=O)O)C(=O)O)cc1` [methotrexate, reference compound], the “influence on body weight” value [3] was “no obvious influence on increase in body weight”.
